# According to US4206207A, “Use of 4-carboxy-phthalato(1,2-diaminocyclohexane)-platinum (II) and alkali metal salts thereof with cyclophosphamide in alleviating L1210 murine leukemia” (priority 1978, dated 1980):
# How the values were obtained:
# [1] = system: L1210 leukemia; assay type: in vivo, mice; details: hydroxyurea alone, at least 1000 mg/kg
# Procedure: Compound Pt-307 was administered usually in a dosage regimen of 5-60 mg/kg of body weight. This was given as a single dose or on Days 1, 5, and 9 in the standard National Institutes of Health 10-day testing.
# CY was utilized at an optimum 50 mg/kg of body weight (range 25-75 mg/kg) preferably given at Day 3 in the 10-day testing. 5-FU was utilized at 75 mg/kg of body weight (range 50-100 mg/kg) at Day 3. HU was used in a high dosage of at least 1000 mg/kg of body weight (range 1000-1500 mg/kg). The 5-FU and the HU were utilized as ternary compositions only with cyclophosphamide and the platinum compound.
# Hydroxyurea is utilized in combination therapy at a high dosage of at least 1000 mg/kg of body weight (range 1000-1500 mg/kg).
# [2] = system: adenocarcinoma of the stomach, pancreas, and large bowel; details: combined FU and radiation vs radiation alone; cited from earlier work
# [3] = system: L1210; test: In vitro growth inhibition of L1210 cells; assay type: cell-based, murine
# From the text: (§1) The ID50 refers to the concentration of test compound required to
# (§2) inhibit the growth of either the L1210 or L1210/DDP (NSC119875) resistant
# [4] = system: L1210/DDP; test: In vitro growth inhibition of L1210/DDP (NSC-119875 resistant) cells; assay type: cell-based, murine
# From the text: as §1, §2
# [5] = system: P388 leukemia; test: In vivo activity against P388 leukemia; details: Days 1,5,9,13, NSC-119875 6.7 mg/kg, NSC-271674 20.0 mg/kg
# From the text: (§3) Data are expressed as survival in days and as a percentage increase in […]
# [6] = system: P388/DDP; test: In vivo activity against P388/DDP leukemia with acquired resistance to NSC-119875; details: Days 1,5,9,13, NSC-119875 6.7 mg/kg, NSC-271674 20.0 mg/kg
# From the text: P388/DDP refers to a tumor line with acquired resistance to NSC119875.
# as §3
# [7] = system: B16 melanoma; test: Mouse tumor panel: B16 melanoma (ip, survival time); assay type: in vivo; details: D1-9
# Procedure: (§4) NSC-271674 Against a Panel of a Mouse Tumors
# (§5) *Survival time (mean or median) assay
# (§6) Data are expressed as a percentage of the survival time in days or the
# (§7) tumor weights in mg of the treated mice divided by the corresponding
# (§8) values for the control mice. All testing was performed using both platinu
# (§9) compounds in the same experiment. The criteria for activity are as
# (§10) follows: confirmed activity (activity from two separate laboratories) of
# (§11) % T/C of 150 or more for survival systems and 10% or less for tumor weigh
# (§12) inhibition assays. Lower levels of activity such as a % T/C of 125 for
# (§13) survival systems and 42% for tumor weight inhibition assays are considere
# (§14) statistically significant.
# [8] = system: L1210; test: Mouse tumor panel: L1210 (ip, survival time); assay type: in vivo; details: D1-9
# Procedure: as §4, §5, §6, §7, §8, §9, §10, §11, §12, §13, §14
# [9] = system: Lewis lung; test: Mouse tumor panel: Lewis lung (iv, survival time); assay type: in vivo; details: D1-9
# Procedure: as §4, §5, §6, §7, §8, §9, §10, §11, §12, §13, §14
# [10] = system: CD8F1 mammary; test: Mouse tumor panel: CD8F1 mammary (sc, tumor weight inhibition); assay type: in vivo; details: Q7DX5
# Procedure: as §4
# (§15) **Tumor weight inhibition assay.
# as §6, §7, §8, §9, §10, §11, §12, §13, §14
# [11] = system: Colon #38; test: Mouse tumor panel: Colon #38 (sc, tumor weight inhibition); assay type: in vivo; details: D2,9
# Procedure: as §4, §15, §6, §7, §8, §9, §10, §11, §12, §13, §14
# [12] = system: strains of murine leukemia; test: Activity against strains of murine leukemia resistant to NSC 119875 (general statement); details: mouse, in vivo
# [13] = Renal Toxicity Screening Protocol, toxicity compared to NSC-119875; assay type: in vivo
smiles,measurement,setting,value
NC(=O)NO [hydroxyurea],efficacy against L1210 (in words),[1],only minimally effective
"O=c1[nH]cc(F)c(=O)[nH]1 [5-FU, 5-fluorouracil]",mean survival times (in words),[2],significantly increased
"N.N.[Cl][Pt][Cl] [NSC-119875, cisdichlorodiamino platinum II, reference compound]",ID50 (concentration required to inhibit the growth of cells by 50 percent),[3],0.05 µg/mL
same,ID50 (concentration required to inhibit the growth of cells by 50 percent),[4],2.50 µg/mL
same,% ILS,[5],145%
same,Survival,[5],32.6 days
same,% ILS,[6],41%
same,Survival,[6],15.5 days
same,% T/C (survival time) at optimal dose,"[7]; B16 first line, optimal dose NSC-119875 2, NSC-271674 6.25 mg/kg/inj",193%
same,% T/C (survival time) at optimal dose,"[7]; B16 second line, optimal dose NSC-119875 1, NSC-271674 1.56 mg/kg/inj",166%
same,% T/C (survival time) at optimal dose,"[8]; L1210 first line, optimal dose NSC-119875 2, NSC-271674 0.78 mg/kg/inj",151%
same,% T/C (survival time) at optimal dose,"[8]; L1210 second line, optimal dose NSC-119875 2, NSC-271674 1.56 mg/kg/inj",182%
same,% T/C (survival time) at optimal dose,"[9]; Lewis lung first line, optimal dose NSC-119875 2, NSC-271674 3.12 mg/kg/inj",135%
same,% T/C (survival time) at optimal dose,"[9]; Lewis lung second line, optimal dose NSC-119875 2, NSC-271674 6.25 mg/kg/inj",177%
same,% T/C (tumor weight) at optimal dose,"[10]; CD8F1 first line, optimal dose NSC-119875 8, NSC-271674 6.25 mg/kg/inj",0%
same,% T/C (tumor weight) at optimal dose,"[10]; CD8F1 second line, optimal dose NSC-119875 8, NSC-271674 25 mg/kg/inj",0%
same,% T/C (tumor weight) at optimal dose,"[11]; Colon #38 first line, optimal dose NSC-119875 8, NSC-271674 12.5 mg/kg/inj",42%
same,% T/C (tumor weight) at optimal dose,"[11]; Colon #38 second line, optimal dose NSC-119875 16, NSC-271674 50 mg/kg/inj",11%
same,activity against NSC 119875-exhausted strains (in words),[12],has exhausted its activity
"N.N.O=C([O-])C1(C(=O)[O-])CCC1.[Pt+2] [NSC-241240, diamine [1,1cyclobutanedicarboxylato (2)0,0']platinum]",Body Weight Loss score,[13]; relative to NSC-119875,1
same,Clinical Chemistry - Blood Urea Nitrogen score,[13]; relative to NSC-119875,1
same,Clinical Chemistry - Creatinine score,[13]; relative to NSC-119875,1
same,Clinical Chemistry - Serum Glutamic Pyruvic Transaminase score,[13]; relative to NSC-119875,3
same,Hematology - Hematocrit score,[13]; relative to NSC-119875,4
same,Hematology - White Blood Cell score,[13]; relative to NSC-119875,3
same,Histopathology - Gastrointestinal score,[13]; relative to NSC-119875,1
same,Histopathology - Hematopoietic score,[13]; relative to NSC-119875,5
same,Histopathology - Lymphatic score,[13]; relative to NSC-119875,1
same,Histopathology - Renal score,[13]; relative to NSC-119875,1
same,TOTAL SCORE,[13]; sum of the ten scores,21
